Results published in patent publication US20230322805A1, “NOVEL PYRIMIDODIAZEPINE DERIVATIVES OR USES THEREOF” (SPARK BIOPHARMA, INC., priority 2020, published 2023).

Assays:
Format in all cases: cell-based, human
[1] = test system: autophagy-related genes regulated by ATF4 in SH-SY5Y cells; experiment: RT-qPCR of autophagy-related genes regulated by ATF4; details: 5 μM SB1617 with 1 μM thapsigargin, 8 hours, versus thapsigargin alone
Experimental: To analyze the level of autophagy-related genes, SH-SY5Y cells were treated with 1 μM thapsigargin for 8 h in the presence or absence of 5 μM SB1617. Total RNA was extracted using the RNeasy kit (Qiagen) according to the manufacturer's instructions. RNA was quantified using NanoVue (GE Healthcare) and cDNA was prepared with AccuPower CycleScript RT PreMix dT20 (Bioneer) according to the manufacturer's instructions. Quantitative RT-polymerase chain reaction (qRT-PCR) experiments were performed using KAPA SYBR FAST ABI Prism qPCR Master Mix (KAPA Biosystems). Data were analyzed with the comparative Ct method and normalized to housekeeping genes.
5-3. ATF4 is a transcription factor, which rises during elF2a-phosphorylation and upregulates genes related to autophagy and oxidation/reduction control as a recovery mechanism during ER stress. To assure this, 5 μM SB1617 was treated in SH-SY5Y cells for 8 hours in the presence or absence of 1 μM thapsigargin, and then autophagy-related genes regulated by ATF4 were identified with RT-qPCR.

[2] = test system: protein synthesis in SH-SY5Y cells; experiment: Protein synthesis labelling with furomycin in SH-SY5Y cells; details: 10 μM SB1617, with thapsigargin
Experimental: 5-1. […] To assure this, SH-SY5Y cells were treated with 10 μM SB1617 for directed time, and then the newly synthesized protein was labeled with 10 μg/mL furomycin for 10 minutes and visualized by anti-furomycin antibody staining.

[3] = test system: LC3-1 to LC3-II conversion (autophagy); experiment: Immunoblot of LC3-1 to LC3-II conversion and p62 in HEK293 BiFC-tau cells; details: 5 μM SB1617, presence or absence of 500 nM TG, 6 hours

Q: Which “transcription level of autophagy-related genes regulated by ATF4” value [1] does the source give for CN(Cc1ccc(Cl)cc1)c1ncnc2c1[C@@H]1OC[C@H](CN2)N1S(=O)(=O)c1ccc([N+](=O)[O-])cc1 [Compound 117] here?
A: The value was “increased the transcription level of autophagy-related genes”.

Q: And the “inhibition of protein synthesis” value [2]?
A: Its value is “enhanced and extended”.

Q: And the “conversion from LC3-1 to LC3-II” value [3]?
A: Its value is “conversion from light chain 3-1 (LC3-1) to LC3-II was confirmed”.
